# Results published in US20240190880A1 (THE REGENTS OF THE UNIVERSITY OF MICHIGAN, priority 2021, published 2024).
# Molecular target: T1, ER (Homo sapiens, UniProt P03372)
# T1 construct: host or cells: T47D and MCF7 human breast cancer cells
# T1 sequence (P03372 1-595): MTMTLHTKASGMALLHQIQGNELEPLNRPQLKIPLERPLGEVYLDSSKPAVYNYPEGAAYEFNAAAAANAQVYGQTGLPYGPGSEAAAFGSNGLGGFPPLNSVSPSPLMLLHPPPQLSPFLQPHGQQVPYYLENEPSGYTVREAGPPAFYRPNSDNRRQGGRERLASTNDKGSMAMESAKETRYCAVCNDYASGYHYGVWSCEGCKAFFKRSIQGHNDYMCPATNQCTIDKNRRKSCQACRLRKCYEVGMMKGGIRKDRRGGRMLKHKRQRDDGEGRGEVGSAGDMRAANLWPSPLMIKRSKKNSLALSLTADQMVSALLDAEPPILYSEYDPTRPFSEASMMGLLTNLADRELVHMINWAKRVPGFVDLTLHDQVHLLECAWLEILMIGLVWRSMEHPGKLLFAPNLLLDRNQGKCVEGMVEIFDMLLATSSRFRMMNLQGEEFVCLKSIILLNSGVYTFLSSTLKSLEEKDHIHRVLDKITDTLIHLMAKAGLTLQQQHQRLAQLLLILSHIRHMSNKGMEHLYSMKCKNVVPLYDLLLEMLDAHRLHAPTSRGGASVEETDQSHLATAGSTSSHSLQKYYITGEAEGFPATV
# Assay: ER degradation activity, in-cell western blot analysis in T47D cells
# Type: cell-based
# Details: 16 hours, Table A does not say which cell line (T47D or MCF7), read-out: Potency (DC50)
# How it was run: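 In-cell western, T47D; compounds 16 h, 0.5% DMSO final; anti-rabbit-680/anti-mouse-800 secondaries, 1 h RT, dark; read on CLX imager. ER % vs untreated/DMSO wells (100%).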
row,DC50 [nM],Structure (SMILES)
1,10 to 100,"CN(C1CCN(c2ccc([C@@H]3c4ccc(O)cc4CC[C@@H]3c3ccccc3)cc2)CC1)N1CCC(C(=O)N2Cc3cc4c(cc3C2)C(=O)N(C2CCC(=O)NC2=O)C4)CC1 (mixture of isomers) [E 288, 3-(6-(1-((1-(4-((1R,2S)-6-hydroxy-2-phenyl-1,2,3,4-tetrahydronaphthalen-1-yl)phenyl)piperidin-4-yl)(methyl)amino)piperidine-4-carbonyl)-1-oxo-3,5,6,7-tetrahydropyrrolo[3,4-f]isoindol-2(1H)-yl)piperidine-2,6-dione]"
2,< 10,"C[C@@H]1Cc2c([nH]c3ccccc23)[C@@H](c2c(F)cc(N3CCC4(CC3)CC(C(=O)N3CCC(N5Cc6cc7c(cc6C5)C(=O)N(C5CCC(=O)NC5=O)C7=O)CC3)C4)cc2F)N1CC(F)F (stereo partly drawn) [E 100, 6-(1-(7-(4-((1R,3R)-2-(2,2-difluoroethyl)-3-methyl-2,3,4,9-tetrahydro-1H-pyrido[3,4-b]indol-1-yl)-3,5-difluorophenyl)-7-azaspiro[3.5]nonane-2-carbonyl)piperidin-4-yl)-2-(2,6-dioxopiperidin-3-yl)-6,7-dihydropyrrolo[3,4-f]isoindole-1,3(2H,5H)-dione]"
3,< 10,"O=C1CCC(N2Cc3cc4c(cc3C2=O)CN(C2CCN(CC3CCN(c5ccc([C@@H]6c7ccc(O)cc7CC[C@@H]6c6ccccc6)cc5)CC3)CC2)C4)C(=O)N1 (mixture of isomers) [E 3, Rac-3-(6-(1-((1-(4-((1R,2S)-6-hydroxy-2-phenyl-1,2,3,4-tetrahydronaphthalen-1-yl)phenyl)piperidin-4-yl)methyl)piperidin-4-yl)-1-oxo-3,5,6,7-tetrahydropyrrolo[3,4-f]isoindol-2(1H)-yl)piperidine-2,6-dione]"
4,> 100,"O=C1CCC(N2C(=O)c3cc4c(cc3C2=O)CN(CC(=O)N2CCC3(CC2)CCN(c2ccc([C@@H]5c6ccc(O)cc6CC[C@@H]5c5ccccc5)cn2)CC3)C4)C(=O)N1 (mixture of isomers) [E 297, Rac-2-(2,6-dioxopiperidin-3-yl)-6-(2-(9-(5-((1S,2S)-6-hydroxy-2-phenyl-1,2,3,4-tetrahydronaphthalen-1-yl)pyridin-2-yl)-3,9-diazaspiro[5.5]undecan-3-yl)-2-oxoethyl)-6,7-dihydropyrrolo[3,4-f]isoindole-1,3(2H,5H)-dione]"
5,10 to 100,"C[C@@H]1Cc2c([nH]c3ccccc23)[C@@H](c2c(F)cc(N3CCC4(CC3)CN(C(=O)CN3Cc5cc6c(cc5C3)C(=O)N(C3CCC(=O)NC3=O)C6=O)C4)cc2F)N1CC(F)(F)F (stereo partly drawn) [E 227, 6-(2-(7-(3,5-difluoro-4-((1R,3R)-3-methyl-2-(2,2,2-trifluoroethyl)-2,3,4,9-tetrahydro-1H-pyrido[3,4-b]indol-1-yl)phenyl)-2,7-diazaspiro[3.5]nonan-2-yl)-2-oxoethyl)-2-(2,6-dioxopiperidin-3-yl)-6,7-dihydropyrrolo[3,4-f]isoindole-1,3(2H,5H)-dione]"
6,> 100,"C[C@@H]1Cc2c([nH]c3ccccc23)[C@@H](c2c(F)cc(N3CCC(N4Cc5cc6c(cc5C4)C(=O)N(C4CCC(=O)NC4=O)C6=O)CC3)cc2F)N1CC(F)F (stereo partly drawn) [E 88, 6-(1-(4-((1R,3R)-2-(2,2-difluoroethyl)-3-methyl-2,3,4,9-tetrahydro-1H-pyrido[3,4-b]indol-1-yl)-3,5-difluorophenyl)piperidin-4-yl)-2-(2,6-dioxopiperidin-3-yl)-6,7-dihydropyrrolo[3,4-f]isoindole-1,3(2H,5H)-dione]"
